Values belong to the compound of their own block, whether it stands above or below them.
How the values were obtained:
[1] = molecular target: T1, Peregrin (Homo sapiens) (UniProt P55201); experiment: Selectivity interaction (Bromodomain panel (DSF asssay)) EUB0000270b BRPF1
T1 sequence (whole entry): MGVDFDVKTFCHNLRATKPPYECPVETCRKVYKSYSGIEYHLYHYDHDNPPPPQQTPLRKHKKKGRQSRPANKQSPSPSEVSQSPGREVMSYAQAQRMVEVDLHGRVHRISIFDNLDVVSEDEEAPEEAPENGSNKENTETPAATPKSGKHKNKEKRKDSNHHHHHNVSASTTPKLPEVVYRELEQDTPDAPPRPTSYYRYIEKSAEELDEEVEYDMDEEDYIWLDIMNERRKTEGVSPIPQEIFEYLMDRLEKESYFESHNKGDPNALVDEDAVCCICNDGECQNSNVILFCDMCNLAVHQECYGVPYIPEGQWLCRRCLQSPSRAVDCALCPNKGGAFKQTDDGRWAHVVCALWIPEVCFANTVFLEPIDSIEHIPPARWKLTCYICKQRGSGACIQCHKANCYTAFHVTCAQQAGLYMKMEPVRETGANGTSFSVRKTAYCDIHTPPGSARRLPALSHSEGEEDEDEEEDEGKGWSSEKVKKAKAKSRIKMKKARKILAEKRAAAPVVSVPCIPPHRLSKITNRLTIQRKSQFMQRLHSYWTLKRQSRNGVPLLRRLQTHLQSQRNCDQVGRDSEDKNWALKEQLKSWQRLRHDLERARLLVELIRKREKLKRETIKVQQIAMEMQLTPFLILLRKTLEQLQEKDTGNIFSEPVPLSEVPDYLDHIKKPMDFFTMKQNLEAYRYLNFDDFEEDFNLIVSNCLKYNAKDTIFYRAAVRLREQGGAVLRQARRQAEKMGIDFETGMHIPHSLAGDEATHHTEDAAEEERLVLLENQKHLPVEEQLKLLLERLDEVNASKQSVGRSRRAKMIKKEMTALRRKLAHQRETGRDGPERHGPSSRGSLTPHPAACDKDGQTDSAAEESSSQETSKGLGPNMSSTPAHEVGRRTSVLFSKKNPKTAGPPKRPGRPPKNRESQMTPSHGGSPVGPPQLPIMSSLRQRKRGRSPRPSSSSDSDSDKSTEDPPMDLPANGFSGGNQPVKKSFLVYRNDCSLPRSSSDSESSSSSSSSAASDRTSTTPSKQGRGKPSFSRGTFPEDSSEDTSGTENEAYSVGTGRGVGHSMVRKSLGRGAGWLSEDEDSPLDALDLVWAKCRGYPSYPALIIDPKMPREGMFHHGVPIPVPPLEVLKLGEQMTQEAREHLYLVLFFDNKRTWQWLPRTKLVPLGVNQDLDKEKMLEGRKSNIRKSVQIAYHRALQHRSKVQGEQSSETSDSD

[2] = molecular target: CDK9/Cyclin K (Homo sapiens) (UniProt P50750+O75909); experiment: Selectivity interaction (LanthaScreen Eu Kinase Binding Assay) EUB0001632a CDK9; assay type: protein-complex assay; conditions: at 10 µM
[3] = molecular target: T2, Ephrin type-B receptor 3 (Homo sapiens) (UniProt P54753); experiment: Selectivity interaction (KinomeScan (DiscoverX)) EUB0000229b EPHB3; conditions: at 10 µM
T2 sequence (whole entry): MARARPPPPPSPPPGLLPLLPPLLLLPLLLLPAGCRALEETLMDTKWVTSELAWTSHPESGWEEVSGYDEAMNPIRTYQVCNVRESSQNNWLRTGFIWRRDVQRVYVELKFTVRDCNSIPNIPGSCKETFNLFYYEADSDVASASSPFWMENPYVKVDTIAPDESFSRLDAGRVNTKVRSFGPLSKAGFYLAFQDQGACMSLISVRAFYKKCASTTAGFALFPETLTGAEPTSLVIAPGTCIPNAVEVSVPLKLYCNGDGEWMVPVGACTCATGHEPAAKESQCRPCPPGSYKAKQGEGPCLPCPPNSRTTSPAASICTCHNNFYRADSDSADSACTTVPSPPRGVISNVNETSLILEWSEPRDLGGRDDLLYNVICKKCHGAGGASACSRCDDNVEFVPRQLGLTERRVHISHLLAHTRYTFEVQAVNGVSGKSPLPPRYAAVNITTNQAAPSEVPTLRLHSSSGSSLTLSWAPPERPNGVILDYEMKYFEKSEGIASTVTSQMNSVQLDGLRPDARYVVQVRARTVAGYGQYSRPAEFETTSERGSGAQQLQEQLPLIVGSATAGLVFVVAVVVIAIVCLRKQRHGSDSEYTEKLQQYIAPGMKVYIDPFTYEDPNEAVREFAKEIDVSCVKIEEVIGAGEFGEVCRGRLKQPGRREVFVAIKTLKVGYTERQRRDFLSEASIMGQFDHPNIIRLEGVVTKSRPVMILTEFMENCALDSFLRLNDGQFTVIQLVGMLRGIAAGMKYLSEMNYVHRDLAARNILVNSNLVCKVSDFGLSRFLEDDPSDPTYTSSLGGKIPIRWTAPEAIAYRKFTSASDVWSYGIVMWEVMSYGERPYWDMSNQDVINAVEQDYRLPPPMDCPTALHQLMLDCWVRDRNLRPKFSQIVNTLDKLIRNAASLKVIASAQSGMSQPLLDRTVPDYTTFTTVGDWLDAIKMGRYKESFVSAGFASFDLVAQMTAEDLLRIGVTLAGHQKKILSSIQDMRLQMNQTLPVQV

[4] = molecular target: T3, Cyclin-dependent kinase 11A (Homo sapiens) (UniProt Q9UQ88); experiment: Selectivity interaction (KinomeScan (DiscoverX)) EUB0000607a CDK11A; conditions: at 10 µM
T3 sequence (whole entry): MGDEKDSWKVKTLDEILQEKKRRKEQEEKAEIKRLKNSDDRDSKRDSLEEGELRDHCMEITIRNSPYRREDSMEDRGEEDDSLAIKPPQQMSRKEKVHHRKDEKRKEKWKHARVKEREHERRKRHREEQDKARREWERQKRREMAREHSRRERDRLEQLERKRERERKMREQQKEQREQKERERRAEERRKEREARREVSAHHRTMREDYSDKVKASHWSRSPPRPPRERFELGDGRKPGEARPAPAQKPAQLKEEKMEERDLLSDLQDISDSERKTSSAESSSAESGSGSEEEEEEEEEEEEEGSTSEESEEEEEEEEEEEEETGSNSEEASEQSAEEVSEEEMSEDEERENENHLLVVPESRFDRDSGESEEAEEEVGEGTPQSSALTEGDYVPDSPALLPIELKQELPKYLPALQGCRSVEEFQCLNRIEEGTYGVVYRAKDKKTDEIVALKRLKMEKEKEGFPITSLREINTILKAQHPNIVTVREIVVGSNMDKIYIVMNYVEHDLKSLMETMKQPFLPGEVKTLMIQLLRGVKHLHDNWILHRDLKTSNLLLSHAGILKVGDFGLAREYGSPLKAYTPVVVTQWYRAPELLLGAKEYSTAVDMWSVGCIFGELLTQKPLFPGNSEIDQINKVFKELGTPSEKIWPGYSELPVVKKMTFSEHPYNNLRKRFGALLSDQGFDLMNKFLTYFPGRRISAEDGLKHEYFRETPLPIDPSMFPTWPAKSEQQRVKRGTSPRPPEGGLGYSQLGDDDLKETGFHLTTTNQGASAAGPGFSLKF

dTM [1]: -1.75 K
Compound: Cc1cc(CN)cc(C)c1-c1ncn(C)c1-c1cncn1C

% of inhibition [2]: -32.1%
Compound: Cn1cc(-n2cnc3c(NCc4nc5cc(Cl)c(Cl)cc5[nH]4)nc(N4CCOCC4)nc32)cn1

Compound: COc1cc(N(C)c2ccnc3ccc(C(F)(F)F)cc23)cc(OC)c1OC
% binding [3]: 85%

Compound: CNC(=O)Nc1ccc(-c2nc(N3CC4CCC(C3)O4)c3cnn(C4CCC5(CC4)OCCO5)c3n2)cc1
% of control [4]: 97%

Reference: ChEMBL document CHEMBL5465560, “Selectivity Literature for EUbOPEN Chemogenomic Library” (2024)
